Assay results reported in patent publication US11634443B2, “Treprostinil prodrugs” (United Therapeutics Corporation, priority 2019, dated 2023).
Values joined by “and” are separate entries in the source; they are usually repeats but may differ in a detail not shown here. Equal entries are not always repeated. “Also recorded” adds a separate entry of the source. Where two headings read alike, the source gives them in different places.

Tests used:
[1] = Stability and formation of treprostinil in dog cryopreserved hepatocytes
Experimental: (§1) Mixed-gender human cryopreserved hepatocytes, male Sprague-Dawley rat cryopreserved hepatocytes, and male Beagle dog cryopreserved hepatocytes were purchased from XenoTech. The hepatocytes were thawed and prepared according to the vendor's instructions, pooled into Krebs Henseleit buffer (KHB, pH 7.4), and kept on ice prior to the experiments. […] The final DMSO content in the incubation mixture was ≤0.1%. […] Aliquots of the test article were withdrawn (n=1) at 0, 15, 30, 60, and 120 minutes. […] Aliquots of 7-HC were withdrawn (n=1) at 0 and 15 minutes. The reaction was immediately terminated by adding two volumes of ice-cold acetonitrile (ACN) to the test article samples and three volumes of ACN containing internal standard to the positive control samples.

[2] = Stability and formation of treprostinil in human cryopreserved hepatocytes
Experimental: as §1

[3] = Stability and formation of treprostinil in rat cryopreserved hepatocytes
Experimental: as §1

[4] = for Dose proportionality of mean treprostinil Cmax and AUC0-24hr: PO 1 to 50 mg/kg prodrug
[5] = Clinical signs and mortality after single oral gavage or IV bolus dose in rats; assay type: in vivo
Experimental: Animals received a single dose via oral gavage or intravenous (bolus) injection. The following parameters and end points were evaluated in this study: clinical signs and pharmacokinetic parameters. Single males in the oral 50 mg/kg prodrugs XVII and VI group were found dead on Day 2. No macroscopic findings were noted. All other animals survived to the scheduled euthanasia.
Animals were not removed from the cage during observations, unless necessary for identification or confirmation of possible findings.
The animals were removed from the cage, and a detailed clinical observation was performed on the day of animal selection. Cage side observations were performed at 1 to 2 hours post dose. Animals were weighed individually following receipt, on the day of randomization, and on each day of dosing (prior to dosing). Individual body weights are presented below.
All surviving animals were euthanized and discarded. A necropsy was conducted for animals that died on study, and specified tissues were saved.

[6] = target: T1, prostaglandin I2 (PGI2) receptor (IP) (Homo sapiens, UniProt P43119); test: IP receptor cAMP assay (agonist mode); assay type: cell-based; conditions: Table 20; agonist mode; NC = too inactive to realistically calculate; * partial agonists or odd dose-response curves
T1 construct: expressed in transfected cells; host or cells: CHO-K1
T1 sequence (P43119 whole entry): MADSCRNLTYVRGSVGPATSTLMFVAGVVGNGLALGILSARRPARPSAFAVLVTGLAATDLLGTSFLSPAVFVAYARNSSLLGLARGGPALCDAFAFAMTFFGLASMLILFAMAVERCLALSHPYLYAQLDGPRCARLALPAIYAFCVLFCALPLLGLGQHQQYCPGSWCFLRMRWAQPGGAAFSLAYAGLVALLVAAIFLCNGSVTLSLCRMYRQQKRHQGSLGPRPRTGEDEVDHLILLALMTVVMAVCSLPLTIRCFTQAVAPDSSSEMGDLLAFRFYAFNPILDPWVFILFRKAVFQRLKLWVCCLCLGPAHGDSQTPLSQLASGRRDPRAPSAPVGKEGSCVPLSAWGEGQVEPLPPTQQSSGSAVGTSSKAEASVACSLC
Experimental: Assay Buffer: • EP1 Calcium and DP1 cAMP Assays: HBSS plus 20 mM HEPES • EP2 and IP1 cAMP Assays: 1 mM IBMX in HBSS plus 20 mM HEPES
Cells were thawed from frozen cells and resuspended in assay buffer at desired concentrations. cAMP or Calcium assays were performed according to the manufacturer's protocol using Multiscreen™ TR-FRET cAMP 1.0 No Wash Assay Kit or Multiscreen™ Calcium 1.0 No Wash Kit.
Gas Cyclic AMP (cAMP) Assay: In agonist mode testing, cells were seeded in a 384-well plate at an appropriate density and then were treated with compounds and incubated at 37° C. for 20 minutes. The reaction was terminated by sequentially adding sequentially adding trFluor™ Eu-labeled cAMP and trFluor™ 650-labeled anti-cAMP antibody in lysis buffer. […] All testing wells contained 0.1% DMSO in the final concentrations.
Data in graphs are represented in Mean±SD. Dose-dependent responses were fitted with sigmoidal dose-response curves allowing variable slopes using GraphPad Prism version 6 (Graphpad Prism).
These studies used cell lines overexpressing either human IP, EP2 or DP1, or EP1 receptors, and following incubation with varying concentrations of compounds, cAMP levels were measured using Fluorescence Resonance Energy Transfer (FRET).

[7] = target: T2, prostaglandin D2 (PGD2) receptor 1 (DP1) (Homo sapiens, UniProt Q13258); test: DP1 receptor cAMP assay (agonist mode); assay type: cell-based
T2 construct: expressed in transfected cells; host or cells: HEK293T
T2 sequence (Q13258 1-359): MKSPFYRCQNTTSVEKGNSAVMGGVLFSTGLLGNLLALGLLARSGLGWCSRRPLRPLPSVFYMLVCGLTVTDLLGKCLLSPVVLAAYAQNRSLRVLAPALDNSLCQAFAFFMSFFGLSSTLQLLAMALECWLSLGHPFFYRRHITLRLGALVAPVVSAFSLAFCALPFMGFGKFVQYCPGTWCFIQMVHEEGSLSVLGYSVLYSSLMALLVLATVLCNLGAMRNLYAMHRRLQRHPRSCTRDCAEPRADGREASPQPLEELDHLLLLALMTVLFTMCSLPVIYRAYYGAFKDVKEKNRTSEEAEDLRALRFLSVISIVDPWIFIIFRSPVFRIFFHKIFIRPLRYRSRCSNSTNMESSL

[8] = male, Beagle, dog, 15 min, 100 μM, pH 7.4
[9] = both, human, 15 min, 100 μM, pH 7.4
[10] = male, Sprague-Dawley, rat, 15 min, 100 μM, pH 7.4
[11] = treprostinil in plasma, single IV bolus 1 mg/kg prodrug, male rats
[12] = treprostinil in plasma, single PO 1 mg/kg prodrug, male rats
[13] = single IV bolus 1 mg/kg, male Crl:CD(SD) rats
[14] = single oral 50 mg/kg, male Crl:CD(SD) rats
[15] = single oral 50 mg/kg, male Crl:CD(SD) rats, 50 mg/kg
[16] = parent prodrug in plasma, single IV bolus 1 mg/kg, male rats
[17] = parent prodrug in plasma, single PO 1, 10 and 50 mg/kg (all PO groups), male rats
[18] = parent prodrug in plasma, single PO or IV bolus, male rats
[19] = treprostinil in plasma, male rats
[20] = treprostinil in plasma, single IV bolus 1 mg/kg prodrug, individual animals, male rats
[21] = treprostinil in plasma, single PO 10 mg/kg prodrug, male rats

O=c1ccc2ccc(O)cc2o1 [7-hydroxycoumarin, reference compound]
Formation Rate of 7-HC-G (glucuronide) [1, 8]: 114 pmol/min/10^6 cells
Formation Rate of 7-HC-S (sulfate) [1, 8]: 35.9 pmol/min/10^6 cells
Formation Rate of 7-HC-G (glucuronide) [2, 9]: 97.7 pmol/min/10^6 cells
Formation Rate of 7-HC-S (sulfate) [2, 9]: 10.8 pmol/min/10^6 cells
Formation Rate of 7-HC-G (glucuronide) [3, 10]: 91.4 pmol/min/10^6 cells
Formation Rate of 7-HC-S (sulfate) [3, 10]: 24.7 pmol/min/10^6 cells

CCCCC[C@@H](CC[C@@H]1[C@H]2Cc3cccc(OCC(=O)O)c3C[C@H]2C[C@H]1O)OC(=O)OC [Prodrug IV]
Dose proportionality of mean prodrug Cmax ([4]; parent prodrug, PO 10 to 50 mg/kg, male rats): approximately dose proportional manner
PO bioavailability (% F) of prodrug, based on mean AUCall/Dose ([4]; rat, in vivo): 1.04%
Individual AUCINF of prodrug ([4]; rat, in vivo, iv, 1 mg/kg): 41.5 to 144 ng·h/mL
Individual C0 of prodrug ([4]; rat, in vivo, iv, 1 mg/kg): 65.6 to 759 ng/mL
Individual Cl of prodrug ([4]; rat, in vivo, iv, 1 mg/kg): 115.7 to 401.67 mL/min/kg
Individual T1/2 of prodrug ([4]; rat, in vivo, iv, 1 mg/kg): 5.46 to 16.6 min
Individual Vz of prodrug ([4]; rat, in vivo, iv, 1 mg/kg): 2.69 to 3.61 L/kg
Mean AUC0-12hr of prodrug ([4]; rat, in vivo, iv, 1 mg/kg): 94.4 ng·h/mL
Mean AUCINF of prodrug ([4]; rat, in vivo, iv, 1 mg/kg): 98.7 ng·h/mL
Mean C0 of prodrug ([4]; rat, in vivo, iv, 1 mg/kg): 324 ng/mL
Mean Cl of prodrug ([4]; rat, in vivo, iv, 1 mg/kg): 223.33 mL/min/kg
Mean T1/2 of prodrug ([4]; rat, in vivo, iv, 1 mg/kg): 0.212 h
Mean Vz of prodrug ([4]; rat, in vivo, iv, 1 mg/kg): 3.15 L/kg
Prodrug quantifiable up to (time postdose) ([4]; rat, in vivo, iv, 1 mg/kg): 1 or 2 hours
Prodrug quantifiable up to (time postdose) ([4]; rat, in vivo, po, 10 mg/kg): 1 h
AUCINF of prodrug (single animal) ([4]; rat, in vivo, po, 50 mg/kg): 65.4 ng·h/mL
Cl/F of prodrug (single animal) ([4]; rat, in vivo, po, 50 mg/kg): 12733.3 mL/min/kg
Individual AUC0-24hr of prodrug ([4]; rat, in vivo, po, 50 mg/kg): 49.2 ng·h/mL
Prodrug quantifiable up to (time postdose) ([4]; rat, in vivo, po, 50 mg/kg): 1, 2, 8, or 12 hours
T1/2 of prodrug (single animal) ([4]; rat, in vivo, po, 50 mg/kg): 4.27 h
Vz/F of prodrug (single animal) ([4]; rat, in vivo, po, 50 mg/kg): 4710 L/kg
Test article-related (adverse) clinical observations ([5]; rat, in vivo, iv, 1 mg/kg): adverse clinical observations
Test article-related (adverse) clinical observations ([5]; rat, in vivo, po, 50 mg/kg): adverse clinical observations

CCCCC[C@H](O)CC[C@@H]1[C@H]2Cc3cccc(OCC(=O)O)c3C[C@H]2C[C@H]1OC [Prodrug LXIII, treprostinil cyclopentyl methyl ether]
EC50 Fold Different from Treprostinil, IP Receptor [6]: 208x
EC50 Fold Different from Treprostinil, DP1 Receptor ([7]; Table 20, agonist mode, NC = too inactive to realistically calculate, * partial agonists or odd dose-response curves): 217x*

CCCCC[C@@H](CC[C@@H]1[C@H]2Cc3cccc(OCC(=O)O)c3C[C@H]2C[C@H]1O)OP(=O)(O)O [Prodrug VI, treprostinil side chain phosphate]
Treprostinil Concentration, 0 min [1]: 0.0124 µM
Treprostinil Concentration, 15 min [1]: 0.581 µM
Treprostinil Concentration, 30 min [1]: 0.609 µM
Treprostinil Concentration, 60 min [1]: 0.533 µM
Treprostinil Concentration, 120 min [1]: 0.548 µM
T1/2 of prodrug (single animal) ([4]; parent prodrug, single PO 50 mg/kg, single animal, male rats): 1.76 h
Prodrug plasma concentrations ([4]; rat, in vivo, iv, 1 mg/kg): BLQ
Prodrug plasma concentrations (BQL) ([4]; rat, in vivo, iv, 1 mg/kg): < 1.00 ng/mL
Prodrug plasma concentrations ([4]; rat, in vivo, po, 1 mg/kg): BLQ
Prodrug plasma concentrations ([4]; rat, in vivo, po, 10 mg/kg): BLQ
AUCINF of prodrug (single animal) ([4]; rat, in vivo, po, 50 mg/kg): 28.2 ng·h/mL
Mean AUC0-24hr of prodrug ([4]; rat, in vivo, po, 50 mg/kg): 242 ng·h/mL
Prodrug quantifiable up to (time postdose) ([4]; rat, in vivo, po, 50 mg/kg): 2, 4, 8, or 24 hours
Mean T1/2 of treprostinil [4, 11]: 1.90 h
Mean Cl/F of treprostinil [4, 12]: 448.33 mL/min/kg
Mean T1/2 of treprostinil [4, 12]: 14.0 h
Test article-related (adverse) clinical observations [5, 13]: adverse clinical observations
Test article-related (adverse) clinical observations [5, 14]: adverse clinical observations
Mortality [5, 15]: found dead; also recorded: lethality
Activity, DP1 Relative to Tre ([7]; Table 24, relative to treprostinil EC50 values, * partial agonists or ambiguous dose-response curves, image character = too high to realistically calculate): 2x
Treprostinil Concentration, 0 min [2]: 0 µM
Treprostinil Concentration, 15 min [2]: 0.223 µM
Treprostinil Concentration, 30 min [2]: 0.365 µM
Treprostinil Concentration, 60 min [2]: 0.466 µM
Treprostinil Concentration, 120 min [2]: 0.540 µM
Treprostinil Concentration, 0 min [3]: 0.128 µM
Treprostinil Concentration, 15 min [3]: 0.693 µM
Treprostinil Concentration, 30 min [3]: 0.635 µM
Treprostinil Concentration, 60 min [3]: 0.564 µM
Treprostinil Concentration, 120 min [3]: 0.53 µM

CCCCC[C@@H](CC[C@@H]1[C@H]2Cc3cccc(OCC(=O)O)c3C[C@H]2C[C@H]1O)OC(=O)OCC [Prodrug XVI, treprostinil side chain ethyl carbonate]
Prodrug plasma concentrations [4, 16]: BLQ
Prodrug plasma concentrations [4, 17]: BLQ
Prodrug plasma concentrations (BQL) [4, 18]: < 1.00 ng/mL
Dose proportionality of mean treprostinil Cmax and AUC0-24hr [4, 19]: less than dose proportional manner
Individual AUCINF of treprostinil [4, 20]: 183 ng·h/mL
Individual Cl of treprostinil [4, 20]: 91.17 mL/min/kg
Individual Vz of treprostinil [4, 20]: 5.7 L/kg
Individual T1/2 of treprostinil ([4]; treprostinil in plasma, single IV bolus 1 mg/kg prodrug, individual animals, male rats, 1 mg/kg): 0.722 h and 1.10 h
Mean AUC0-12hr of treprostinil [4, 11]: 192 ng·h/mL
Mean C0 of treprostinil [4, 11]: 549 ng/mL
Mean Cmax of treprostinil [4, 11]: 263 ng/mL
Mean T1/2 of treprostinil [4, 11]: 0.912 h
Treprostinil quantifiable up to (time postdose) [4, 11]: 2 h
Individual AUC0-12hr of treprostinil ([4]; treprostinil in plasma, single IV bolus 1 mg/kg prodrug, male rats, 1 mg/kg): 171 ng·h/mL and 214 ng·h/mL
Treprostinil quantifiable up to (time postdose) [4, 21]: 24 h
Treprostinil quantifiable up to (time postdose) ([4]; treprostinil in plasma, single PO 50 mg/kg prodrug, male rats): 24 h
PO bioavailability (% F) of treprostinil, based on mean AUCall/Dose ([4]; PO 1 mg/kg prodrug vs IV bolus 1 mg/kg prodrug, male rats, 1 mg/kg): 5.94% and 7.74%
PO bioavailability (% F) of treprostinil, based on mean AUCall/Dose ([4]; PO 10 mg/kg prodrug vs IV bolus 1 mg/kg prodrug, male rats): 6.35% and 3.17%
PO bioavailability (% F) of treprostinil, based on mean AUCall/Dose ([4]; PO 50 mg/kg prodrug vs IV bolus 1 mg/kg prodrug, male rats): 4.13% and 3.72%
Test article-related (adverse) clinical observations [5, 13]: adverse clinical observations
Mortality [5, 14]: found dead
Test article-related (adverse) clinical observations [5, 14]: adverse clinical observations

CCCCC[C@@H](CC[C@@H]1[C@H]2Cc3cccc(OCC(=O)O)c3C[C@H]2C[C@H]1O)OC(=O)OC(C)C [Prodrug XVII, treprostinil side chain isopropyl carbonate]
Prodrug plasma concentrations [4, 16]: BLQ
Prodrug plasma concentrations [4, 17]: BLQ
Prodrug plasma concentrations (BQL) [4, 18]: < 1.00 ng/mL
Dose proportionality of mean treprostinil Cmax and AUC0-24hr [4, 19]: less than dose proportional manner
Mean AUC0-12hr of treprostinil [4, 11]: 274 ng·h/mL
Mean C0 of treprostinil [4, 11]: 1350 ng/mL
Mean Cmax of treprostinil [4, 11]: 466 ng/mL
Treprostinil quantifiable up to (time postdose) [4, 21]: 24 h
Test article-related (adverse) clinical observations [5, 13]: adverse clinical observations
Test article-related (adverse) clinical observations [5, 14]: adverse clinical observations
Mortality [5, 15]: found dead; also recorded: lethality
